Reference: US20080124753A1, “SpiceMatrix Technology for Taste Compound Identification” (priority 2006, published 2008)
Entries after “also recorded” stand apart in the source; their conditions may differ.

Columns and labels:
TRPA1 [1] = target: T1, TRPA1 (Homo sapiens, UniProt O75762); test: FMP membrane potential fluorescence assay, TRPA1 transfected HEK 293 cells; assay type: cell-based; conditions: for relative stimulation of TRPA1 (SpiceMatrix reactivity): FIG. 2A, relative to untransfected HEK-293 cells (Parentals), among 68 compounds
T1 sequence (O75762 whole entry): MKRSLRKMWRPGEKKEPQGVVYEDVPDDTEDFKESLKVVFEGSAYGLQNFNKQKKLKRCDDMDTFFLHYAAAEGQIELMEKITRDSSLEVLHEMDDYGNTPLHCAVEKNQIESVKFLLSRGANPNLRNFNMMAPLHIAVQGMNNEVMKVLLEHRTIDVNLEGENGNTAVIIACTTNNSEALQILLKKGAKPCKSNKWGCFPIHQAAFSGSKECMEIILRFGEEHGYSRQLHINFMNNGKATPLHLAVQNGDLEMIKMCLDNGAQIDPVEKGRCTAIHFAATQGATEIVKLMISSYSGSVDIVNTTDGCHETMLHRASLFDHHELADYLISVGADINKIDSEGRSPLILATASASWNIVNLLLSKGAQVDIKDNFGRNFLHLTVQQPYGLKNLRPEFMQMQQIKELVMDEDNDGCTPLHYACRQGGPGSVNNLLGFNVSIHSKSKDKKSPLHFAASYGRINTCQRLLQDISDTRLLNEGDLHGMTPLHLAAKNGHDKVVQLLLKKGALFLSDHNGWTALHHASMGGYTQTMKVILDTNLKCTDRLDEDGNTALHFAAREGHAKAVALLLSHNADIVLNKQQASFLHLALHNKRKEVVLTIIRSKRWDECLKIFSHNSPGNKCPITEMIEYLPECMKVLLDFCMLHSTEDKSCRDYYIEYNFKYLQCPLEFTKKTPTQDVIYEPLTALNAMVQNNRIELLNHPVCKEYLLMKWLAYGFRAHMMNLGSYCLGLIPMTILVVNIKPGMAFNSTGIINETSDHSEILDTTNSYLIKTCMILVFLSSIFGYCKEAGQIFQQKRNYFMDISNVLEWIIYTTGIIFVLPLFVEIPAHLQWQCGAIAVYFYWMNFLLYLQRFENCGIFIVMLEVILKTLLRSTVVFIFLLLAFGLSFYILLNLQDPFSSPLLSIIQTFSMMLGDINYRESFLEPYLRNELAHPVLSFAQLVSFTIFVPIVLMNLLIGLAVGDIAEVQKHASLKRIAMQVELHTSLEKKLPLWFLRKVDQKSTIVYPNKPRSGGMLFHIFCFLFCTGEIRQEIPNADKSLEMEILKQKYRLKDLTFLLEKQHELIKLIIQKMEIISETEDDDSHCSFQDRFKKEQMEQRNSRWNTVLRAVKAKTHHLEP
Source text: (§1) As described in greater detail below, HEK 293 cells, transiently transfected with plasmid bearing the genes encoding the various ion channels, were used to develop SpiceMatrix fingerprint assay. Indirect measurement of the changes in ion concentrations within the HEK 293 cells were made using a FMP dye and stimulation of the cells using calcium activating agents. Described below are the conditions for screening using TRPM5. Screening conditions for other TRP ion channels were similar to those described unless otherwise indicated.
1.0×10^6 HEK 293 cells (ATCC) were plated in each well of a 6-well tissue culture dish overnight. The following day, cells were transfected with 4 μg of a pcDNA3.2 vector containing TRPM5 cDNA and 8 μl of Lipofectamine 2000 (Invitrogen), according to the manufacturer's protocol, and incubated overnight. The following day, transfected cells were trypsinized and seeded into 96-well black, clear bottom, poly-D-lysine plates (Corning) at a density of 70,000 cells/well in a 100 μl volume and incubated in a 37° C./5% CO2 incubator overnight.
(§2) Once the expression of TRPM5 was confirmed in the HEK cells, 100 μl of the Blue or Red FMP dye (Molecular Devices) was added to each well of plates seeded with the transiently transfected cells. The plate was then incubated in a 37° C./5% CO2 incubator for 1 hour. The plate was read in a FLEXStation microplate reader (Molecular Devices) with an excitation of 530 nm and an emission of 565 nm. The fluorescence was monitored for 3 minutes upon exposure of the cells to a calcium activating agent (carbachol, thrombin peptide or ATP).
For screening of taste compounds, sample dilution sets (four 384 sample plates) were tested in 5, dye-loaded, cell lines to yield 20 assay plates for data collection. One cell plate, a sample plate, and an agonist sample source plate were placed in the FLIPR. To identify samples with agonist activity, 10 μl of samples or standards were added to the cell plate, and sample agonist response fluorescent readings taken for 3 minutes. To identify samples with antagonist activity, agonist, e.g. 100 μM cinnamaldehyde for TRPA1, was added to all wells and agonist response fluorescent readings were taken for 2 minutes. Sample that block this response were nominally antagonists.

TRPA1 [2] = target: T1, TRPA1; conditions: literature reports; cited from earlier work
TRPM5 = target: T2, TRPM5 (Homo sapiens, UniProt Q9NZQ8); test: FMP membrane potential fluorescence assay, TRPM5 transfected HEK 293 cells; assay type: cell-based
T2 construct: The full length TRPM5 was excised from the TOPO TA vector; expressed in transfected cells; host or cells: HEK 293 (ATCC)
T2 sequence (Q9NZQ8 1-1165): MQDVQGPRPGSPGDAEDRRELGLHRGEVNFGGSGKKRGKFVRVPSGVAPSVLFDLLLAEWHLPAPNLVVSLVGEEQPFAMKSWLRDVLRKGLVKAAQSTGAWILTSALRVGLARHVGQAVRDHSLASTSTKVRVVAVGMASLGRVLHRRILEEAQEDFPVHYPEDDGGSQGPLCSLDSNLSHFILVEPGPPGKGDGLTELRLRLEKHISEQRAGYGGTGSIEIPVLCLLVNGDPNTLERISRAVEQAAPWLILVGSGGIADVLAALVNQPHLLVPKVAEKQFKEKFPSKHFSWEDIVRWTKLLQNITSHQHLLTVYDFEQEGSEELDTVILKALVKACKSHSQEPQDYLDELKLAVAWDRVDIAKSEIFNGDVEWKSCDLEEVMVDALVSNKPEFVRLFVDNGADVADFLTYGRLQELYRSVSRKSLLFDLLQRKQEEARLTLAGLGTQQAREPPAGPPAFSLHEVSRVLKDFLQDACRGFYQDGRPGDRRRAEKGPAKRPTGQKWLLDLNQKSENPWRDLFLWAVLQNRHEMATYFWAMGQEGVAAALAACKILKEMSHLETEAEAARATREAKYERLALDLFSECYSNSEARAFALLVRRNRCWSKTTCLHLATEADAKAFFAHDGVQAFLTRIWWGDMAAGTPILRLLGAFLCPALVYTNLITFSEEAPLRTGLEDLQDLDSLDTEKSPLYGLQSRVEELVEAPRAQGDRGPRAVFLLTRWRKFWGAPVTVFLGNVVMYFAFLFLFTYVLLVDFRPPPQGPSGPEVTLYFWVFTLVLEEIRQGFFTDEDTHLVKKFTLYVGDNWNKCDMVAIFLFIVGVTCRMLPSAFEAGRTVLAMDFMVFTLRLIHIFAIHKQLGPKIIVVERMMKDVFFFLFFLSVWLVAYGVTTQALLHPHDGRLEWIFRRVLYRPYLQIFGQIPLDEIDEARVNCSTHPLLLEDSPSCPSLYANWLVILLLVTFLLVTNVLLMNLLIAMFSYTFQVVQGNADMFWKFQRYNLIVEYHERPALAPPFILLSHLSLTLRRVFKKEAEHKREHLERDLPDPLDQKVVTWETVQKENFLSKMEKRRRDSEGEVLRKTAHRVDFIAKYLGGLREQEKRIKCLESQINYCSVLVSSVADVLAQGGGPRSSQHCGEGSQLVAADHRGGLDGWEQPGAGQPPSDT
Source text: as §1, with “indicated. […]” for “indicated.”
as §2, with “The plate was then incubated in a 37° C./5% CO2 incubator for 1 hour.” left out
For screening of taste compounds, sample dilution sets (four 384 sample plates) were tested in 5, dye-loaded, cell lines to yield 20 assay plates for data collection. […] To identify samples with agonist activity, 10 μl of samples or standards were added to the cell plate, and sample agonist response fluorescent readings taken for 3 minutes. […]

TRPV1 [3] = target: T3, TRPV1 (Homo sapiens, UniProt Q8NER1); test: FMP membrane potential fluorescence assay, TRPV1 transfected HEK 293 cells; assay type: cell-based
T3 sequence (Q8NER1 whole entry): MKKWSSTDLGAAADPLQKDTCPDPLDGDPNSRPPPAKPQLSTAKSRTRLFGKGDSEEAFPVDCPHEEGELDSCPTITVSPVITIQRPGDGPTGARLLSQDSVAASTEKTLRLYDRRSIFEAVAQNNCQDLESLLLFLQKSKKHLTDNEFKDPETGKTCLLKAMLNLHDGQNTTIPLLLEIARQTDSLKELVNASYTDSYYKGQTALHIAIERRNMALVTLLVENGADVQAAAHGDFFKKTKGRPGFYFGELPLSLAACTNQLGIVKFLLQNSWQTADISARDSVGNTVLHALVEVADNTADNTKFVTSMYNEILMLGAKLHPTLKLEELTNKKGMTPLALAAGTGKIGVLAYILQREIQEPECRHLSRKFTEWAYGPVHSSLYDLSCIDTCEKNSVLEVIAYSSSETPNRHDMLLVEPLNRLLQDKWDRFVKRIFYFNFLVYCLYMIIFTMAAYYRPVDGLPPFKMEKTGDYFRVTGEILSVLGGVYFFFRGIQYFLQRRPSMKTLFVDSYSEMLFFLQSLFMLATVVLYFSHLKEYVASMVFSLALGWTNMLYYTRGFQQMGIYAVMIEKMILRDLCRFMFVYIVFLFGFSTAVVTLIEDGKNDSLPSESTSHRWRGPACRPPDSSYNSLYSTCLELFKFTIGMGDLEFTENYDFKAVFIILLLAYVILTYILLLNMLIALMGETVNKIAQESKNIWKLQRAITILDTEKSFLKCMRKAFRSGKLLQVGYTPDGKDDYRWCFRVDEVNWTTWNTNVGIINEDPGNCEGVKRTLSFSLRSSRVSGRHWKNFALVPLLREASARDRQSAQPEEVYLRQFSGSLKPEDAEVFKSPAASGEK
Source text: as §1
(§3) 1.0×10^6 HEK 293 cells (ATCC) were plated in each well of a 6-well tissue culture dish overnight. The following day, cells were transfected with 4 μg of a pcDNA3.2 vector containing TRPM5 cDNA and 8 μl of Lipofectamine 2000 (Invitrogen), according to the manufacturer's protocol, and incubated overnight. […]
as §2, with “The plate was then incubated in a 37° C./5% CO2 incubator for 1 hour.” left out, “ATP). […]” for “ATP).”

TRPV1 [4] = target: T3, TRPV1; conditions: literature report (Calixto et al.); cited from earlier work
mouse TRPA1 = target: T4, mouse TRPA1 (Mus musculus, UniProt Q8BLA8); conditions: mouse TRPA1-CHO cells, literature report; cited from earlier work
T4 construct: host or cells: CHO
T4 sequence (Q8BLA8 whole entry): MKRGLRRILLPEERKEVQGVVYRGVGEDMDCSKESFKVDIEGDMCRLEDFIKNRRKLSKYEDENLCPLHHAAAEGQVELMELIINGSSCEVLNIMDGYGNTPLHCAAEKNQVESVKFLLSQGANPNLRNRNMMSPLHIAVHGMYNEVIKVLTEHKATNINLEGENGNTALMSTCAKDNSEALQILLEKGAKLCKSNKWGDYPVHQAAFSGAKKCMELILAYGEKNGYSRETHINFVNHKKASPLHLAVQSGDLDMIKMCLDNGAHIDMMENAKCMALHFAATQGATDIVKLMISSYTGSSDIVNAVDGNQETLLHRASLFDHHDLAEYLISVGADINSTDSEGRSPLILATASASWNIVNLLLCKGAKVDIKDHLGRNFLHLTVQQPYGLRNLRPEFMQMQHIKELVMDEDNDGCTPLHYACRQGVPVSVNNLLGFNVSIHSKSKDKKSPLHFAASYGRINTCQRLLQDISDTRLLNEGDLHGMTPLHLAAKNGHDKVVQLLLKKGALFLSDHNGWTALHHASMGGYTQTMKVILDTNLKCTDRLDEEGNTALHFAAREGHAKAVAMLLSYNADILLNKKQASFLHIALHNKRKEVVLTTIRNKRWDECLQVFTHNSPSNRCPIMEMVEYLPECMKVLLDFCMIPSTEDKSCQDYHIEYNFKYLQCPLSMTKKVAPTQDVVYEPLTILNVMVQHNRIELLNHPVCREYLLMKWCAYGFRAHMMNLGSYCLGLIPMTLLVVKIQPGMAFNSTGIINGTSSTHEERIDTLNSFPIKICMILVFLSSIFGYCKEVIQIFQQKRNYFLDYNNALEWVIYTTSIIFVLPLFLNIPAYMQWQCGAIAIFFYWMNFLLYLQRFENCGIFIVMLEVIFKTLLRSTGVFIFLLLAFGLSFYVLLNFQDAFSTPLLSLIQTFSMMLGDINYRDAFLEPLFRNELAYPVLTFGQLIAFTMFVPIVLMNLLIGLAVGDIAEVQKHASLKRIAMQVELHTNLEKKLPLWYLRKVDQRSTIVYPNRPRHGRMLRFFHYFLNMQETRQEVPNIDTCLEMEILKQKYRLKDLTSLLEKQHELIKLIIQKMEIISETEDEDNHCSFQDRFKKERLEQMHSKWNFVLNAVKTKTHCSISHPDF

TRPM8 [5] = target: T5, TRPM8 (Homo sapiens, UniProt Q7Z2W7); conditions: literature reports; cited from earlier work
T5 sequence (Q7Z2W7 whole entry): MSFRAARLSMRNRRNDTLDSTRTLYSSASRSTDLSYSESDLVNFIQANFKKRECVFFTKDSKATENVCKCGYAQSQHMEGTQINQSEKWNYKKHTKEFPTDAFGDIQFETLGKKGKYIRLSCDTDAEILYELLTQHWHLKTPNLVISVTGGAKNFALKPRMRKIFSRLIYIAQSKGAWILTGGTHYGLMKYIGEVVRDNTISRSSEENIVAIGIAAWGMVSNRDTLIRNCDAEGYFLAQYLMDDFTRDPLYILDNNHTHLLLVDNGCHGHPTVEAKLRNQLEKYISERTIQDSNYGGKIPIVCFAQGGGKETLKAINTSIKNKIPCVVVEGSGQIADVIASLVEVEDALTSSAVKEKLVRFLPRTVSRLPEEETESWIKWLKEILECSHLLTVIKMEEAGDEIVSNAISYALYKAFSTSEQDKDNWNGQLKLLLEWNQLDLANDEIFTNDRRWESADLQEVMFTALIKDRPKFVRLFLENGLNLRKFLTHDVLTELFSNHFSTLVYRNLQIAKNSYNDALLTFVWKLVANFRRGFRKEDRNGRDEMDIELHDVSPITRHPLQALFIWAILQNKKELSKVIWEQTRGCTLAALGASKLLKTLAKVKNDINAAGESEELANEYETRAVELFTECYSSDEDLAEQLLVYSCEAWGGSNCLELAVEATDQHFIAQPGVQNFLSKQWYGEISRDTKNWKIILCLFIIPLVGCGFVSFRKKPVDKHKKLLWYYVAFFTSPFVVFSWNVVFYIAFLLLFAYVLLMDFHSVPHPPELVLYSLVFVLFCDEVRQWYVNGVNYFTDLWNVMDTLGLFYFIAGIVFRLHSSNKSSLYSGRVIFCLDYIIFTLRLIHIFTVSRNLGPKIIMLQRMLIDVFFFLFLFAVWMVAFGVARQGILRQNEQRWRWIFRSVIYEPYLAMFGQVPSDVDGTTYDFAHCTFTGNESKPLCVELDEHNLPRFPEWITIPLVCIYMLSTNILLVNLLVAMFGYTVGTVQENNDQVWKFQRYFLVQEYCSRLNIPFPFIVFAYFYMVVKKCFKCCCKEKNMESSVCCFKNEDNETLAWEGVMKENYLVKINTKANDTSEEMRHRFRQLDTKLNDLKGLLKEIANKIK

TRPM8 [6] = target: T5, TRPM8; test: FMP membrane potential fluorescence assay, TRPM8 transfected HEK 293 cells; assay type: cell-based; conditions: FIG. 1D, FLIPR
Source text: as §1, §3
as §2, with “The plate was then incubated in a 37° C./5% CO2 incubator for 1 hour.” left out, “ATP). […]” for “ATP).”

| SMILES | relative stimulation of TRPA1 (SpiceMatrix reactivity) (TRPA1 [1]) | activation of TRPA1 (TRPA1 [2]) | activation of TRPV1 (TRPV1 [4]) | increase in intracellular free Ca2+ (mouse TRPA1) | activation of TRPM8 (TRPM8 [5]) | further results |
| --- | --- | --- | --- | --- | --- | --- |
| CC1CCC(C(C)C)C(O)C1 (single isomer, unassigned; (-)) [(−) menthol] | greatest stimulation of TRPA1 |  |  |  |  |  |
| CCCCCc1cc(O)c2c(c1)OC(C)(C)[C@@H]1CCC(C)=C[C@@H]21 [A^9-tetrahydrocannabinol] |  | activated |  |  |  |  |
| C=CCN=C=S [allyl isothiocyanate] | highly reactive | specific activators of TRPA1 |  |  |  | relative stimulation of TRPM5 (SpiceMatrix reactivity) (TRPM5; FIG. 2, relative to untransfected HEK-293 cells (Parentals)): highly reactive |
| COc1cc(CNC(=O)CCCC/C=C/C(C)C)ccc1O [capsaicin] |  |  |  |  |  | change in relative fluorescent intensity of a voltage-sensitive dye (TRPV1 [3]; FIG. 1C, TRPV1 transfected cells, FMP dye, FLIPR): strong spike in relative fluorescence; also recorded: activates TRPV1 |
| C[N+](C)(C)CCOC(N)=O [carbachol] |  |  |  |  |  | change in relative fluorescent intensity of a voltage-sensitive dye (TRPM5; FIG. 1B, TRPM5 transfected cells, FMP dye, FLIPR): strong spike in relative fluorescence; also recorded: increases TRPM5 |
| O=CC=Cc1ccccc1 [cinnamaldehyde] | greatest stimulation of TRPA1 | activated; also recorded: specific activators of TRPA1 |  |  |  | change in relative fluorescent intensity of a voltage-sensitive dye (TRPA1 [1]; FIG. 1A, TRPA1 transfected cells, FMP dye, FLIPR): strong spike in relative fluorescence; also recorded: activates TRPA1 |
| C=CCc1ccc(O)c(OC)c1 [eugenol] |  | activate | activate | sharp increase | activate |  |
| CCCCC[C@H](O)CC(=O)CCc1ccc(O)c(OC)c1 [gingerol] |  | activate | activate | sharp increase | activate | relative stimulation of TRPV1 (SpiceMatrix reactivity) (TRPV1 [3]; FIG. 2A, relative to untransfected HEK-293 cells (Parentals), among 68 compounds): highest degree of stimulation to TRPV1 |
| CC1CCC(C(C)C)C(O)C1 (stereo not shown) [menthol] |  |  |  |  | activate the TRPM8 | change in relative fluorescent intensity of a voltage-sensitive dye (TRPM8 [6]): strong spike in relative fluorescence; also recorded: activates TRPM8 |
| COC(=O)c1ccccc1O [methyl salicylate] |  | activate | activate | sharp increase | activate |  |
